In patent publication US20060142390A1, “Treatment for severe melancholic depression” (priority 2004, published 2006):

Assays:
[1] = system: non-responsive patients on standard therapy; test: Earlier trials of 96% pure EPA as add on to standard therapy in non-responsive patients; Bech score over time; assay type: in vivo, human; parameters: key to Bech score, Mean: Bech score = sum of 6 HDRS items; conditions: for Bech score, Mean: Add on therapy
Excerpt: (§1) The primary objective was to examine the effects of 96% pure EPA versus placebo on the Hamilton Depression Rating Scale (HDRS) in patients with a new or recurrent episode of depression. • 1. The Bech Scale (sum of 6 items as specified) was used as the instrument to measure efficacy across all subjects, i.e. the reduction of the Bech Score in the course of the trial, by comparing this change in the active groups with that in the placebo group. The Bech Scale consists of 6 items from the original HDRS: depression, guilt, work/interest, psychomotor retardation, anxiety psychic and general somatic symptoms (loss of energy, tiredness) and has been successfully used in several trials (Bech 2002 Acta Psychiatry Scand vol 106; p 252-264). • 2. For the differentiation of the subgroups of subjects, item 6 (early morning awakening), item 12 (loss of appetite) and item 16 (weight loss) were chosen from the HDRS, to identify subjects suffering from severe melancholic features. These items are also related to the definition of the melancholia specifier according the DSM-IV (American Psychiatric Association: 4th Edition, 2000). This specification was only done once, i.e. at the baseline visit (v1). Patients with a score of 2 in any of these 3 items were regarded as having severe melancholic items and therefore belonging the severe melancholic group, the others were regarded as not belonging to this group. The characteristics could change in the course of treatment, therefore it was important that only the condition at baseline was used for the definition. Results:
The following presents the Bech-Score over time in the severe melancholic groups, contrasted with those subjects showing no severe melancholic signs.

[2] = system: outpatients with a new episode of depression; test: Study of 96% pure EPA (ethyl ester) as monotherapy versus placebo in depression; Bech Scale and depression sub score of the HDRS; assay type: in vivo, human; parameters: key to Bech score, Mean: Bech score = sum of 6 HDRS items; key to Change of Bech score: reduction of Bech score (sum of 6 HDRS items) over trial; key to Depression subscore (item1, item2, item3), Mean / Depression subscore, Mean: sum of HDRS item 1, item 2 and item 3; conditions: for Bech score, Mean / Depression subscore (item1, item2, item3), Mean / Depression subscore, Mean: EPA any dose; for Depression subscore (item1, item2, item3), Mean: ITT
Protocol: as §1, with “A study was performed on outpatients with a new episode of depression using 96% pure EPA, as the ethyl ester, as a monotherapy for treatment of depression. The primary” for “The primary”, “definition. Results: An analysis of a less frequently used, but pre-specified sub score, i.e. the depression sub score, which is the sum of item 1 (depression), item 2 (guilt) and item 3 (suicidality), confirmed the findings.” for “definition. Results:”

For `CC/C=C\C/C=C\C/C=C\C/C=C\C/C=C\CCCC(=O)O` [EPA, all cis (or all z) 5,8,11,14,17-eicosapentaenoic acid], the “Bech score, Mean” value ([1]; no severe melancholic signs, Bech l2 (week 2)) was 8.3, the “Bech score, Mean” value ([1]; no severe melancholic signs, Bech l4 (week 4)) was 7.3 and the “Bech score, Mean” value ([1]; no severe melancholic signs, Bech l8 (week 8)) was 6.7. The “Bech score, Mean” value ([1]; no severe melancholic signs, Bech l12 (week 12)) was 6.7, the “Bech score, Mean” value ([1]; no severe melancholic signs, Bech v1 (baseline)) was 9.8 and the “Bech score, Mean” value ([1]; with severe melancholic signs, Bech l2 (week 2)) was 8.1. The “Bech score, Mean” value ([1]; with severe melancholic signs, Bech l4 (week 4)) was 6.8, the “Bech score, Mean” value ([1]; with severe melancholic signs, Bech l8 (week 8)) was 5.9 and the “Bech score, Mean” value ([1]; with severe melancholic signs, Bech l12 (week 12)) was 5.3. For the same compound, the “Bech score, Mean” value ([1]; with severe melancholic signs, Bech v1 (baseline)) was 9.0, the “Improvement of Bech score” value ([1]; add on therapy, patients with severe melancholic features, 12 weeks, placebo 2.8 points, p<0.05) was 3.7 points and the “Bech score outcome at 12 weeks compared with placebo (ANVOVA, baseline as covariate, last observation carried forward)” value ([1]; add on therapy, patients with severe melancholic signs) was “statistically superior”. The “Change of Bech score compared with placebo” value ([2]; ITT group) was “no significant difference”, the “Change of Bech score” value ([2]; ITT group, all subjects, placebo changed by 3.9 points) was 4.0 points and the “Bech score, Mean” value ([2]; ITT group, Bech l2, after 2 weeks, last observation carried forward) was 8.1. For the same compound, the “Bech score, Mean” value ([2]; ITT group, Bech l4, after 4 weeks, last observation carried forward) was 6.6, the “Bech score, Mean” value ([2]; ITT group, Bech l6, after 6 weeks, last observation carried forward) was 6.3 and the “Bech score, Mean” value ([2]; ITT group, Bech v1 = baseline week 1) was 10.3. The “Depression subscore (item1, item2, item3), Mean” value ([2]; baseline) was 4.3, the “Depression subscore (item1, item2, item3), Mean” value ([2]; outcome, LOCF) was 2.3 and the “Bech score, Mean” value ([2]; No severe melancholic signs, Bech l2 (week 2)) was 8.8. The “Bech score, Mean” value ([2]; No severe melancholic signs, Bech l4 (week 4)) was 6.3, the “Bech score, Mean” value ([2]; No severe melancholic signs, Bech l6 (week 6)) was 6.1 and the “Bech score, Mean” value ([2]; No severe melancholic signs, Bech v1 (baseline)) was 10.2. The “Depression subscore, Mean” value ([2]; No severe melancholic signs, baseline) was 4.4, the “Depression subscore, Mean” value ([2]; No severe melancholic signs, outcome) was 2.4 and the “Bech score, Mean” value ([2]; With severe melancholic signs, Bech l2 (week 2)) was 7.3. For the same compound, the “Bech score, Mean” value ([2]; With severe melancholic signs, Bech l4 (week 4)) was 7.0, the “Bech score, Mean” value ([2]; With severe melancholic signs, Bech l6 (week 6)) was 6.5 and the “Bech score, Mean” value ([2]; With severe melancholic signs, Bech v1 (baseline)) was 10.3. For the same compound, the “Depression subscore, Mean” value ([2]; With severe melancholic signs, baseline) was 4.1, the “Depression subscore, Mean” value ([2]; With severe melancholic signs, outcome) was 2.3 and the “Change of Bech score compared with placebo” value ([2]; non-severe melancholic group) was “not significantly different”. The “Change of Bech score” value ([2]; non-severe melancholic group, placebo change 5.0) was 4.1, the “Depression sub score outcome compared with placebo (ANVOVA, baseline as covariate)” value ([2]; patients with severe melancholic signs) was “significant superiority” and the “Improvement of depression sub score” value ([2]; patients with severe melancholic signs, placebo 0.7 points, p<0.05) was 1.8 points. For the same compound, the “Improvement of Bech score” value ([2]; patients with severe melancholic signs, placebo 2.9 points, p<0.05) was 3.8 points.
